Test results as given in patent US7662832B2, “Pyrrolo[2,3-c]pyridine derivatives and processes for the preparation thereof” (priority 2004, dated 2010).

Assays:
[1] = tested on: basal gastric acid secretion; assay: Inhibitory effects on basal gastric acid secretion in pylorus-ligated rats (Shay's rat model); format: in vivo, Sprague Dawley (SD) rats; settings: oral, one hour before pylorus ligation, total acid output 5 hours after ligation
Experimental: Inhibitory effects of the compounds of the present invention on basal gastric acid secretion were performed according to Shay's rat model (Shay, H., et al., 1945, gastroenterology, 5, 43-61). Male Sprague Dawley (SD) rats (200±10 g body weight) were divided into […] (n=5) and fasted for 24 hours with free access to water. Control group was orally administered with 0.5% methylcellulose alone and the other groups were orally administered with test compounds suspended in 0.5% methylcellulose solution at doses of 1, 3 and 10 mg/kg/5 ml one hour before pylorus ligation.
Under ether anesthesia, the abdomens of the rats were incised and then the pylorus was ligated. 5 hours after ligation, the animals were sacrificed, and the gastric contents were collected. The collected contents were centrifuged at 1,000×g for 10 minutes to obtain the gastric juice. Total acid output was measured by 0.01N NaOH volume (ueq/ml) for automatic titration of the gastric juice to pH 7.0 and the ED50s of test compounds were calculated using the Litchfield-Wilcoxon method. % inhibitory activity was calculated from the following equation and the results are shown in Table 2. % inhibitory activity of test compound=(total acid output of control group−total acid output of the group treated with test compounds)/total acid output of control group×100

[2] = target: Proton Pump (H^+/K^+-ATPase) (Sus scrofa, UniProt P19156); assay: Inhibitory effects on proton pump (H^+/K^+-ATPase) activity; format: biochemical; settings: hog gastric vesicles; K^+ stimulated H^+/K^+-ATPase activity; 30 minutes at 37° C.
[3] = target: T1, hog gastric H^+/K^+-ATPase (Sus scrofa, UniProt P19156); assay: Reversible inhibition of hog gastric H^+/K^+-ATPase (washout method); format: biochemical
T1 construct: from tissue; host or cells: hog gastric fundic mucosa; gastric vesicles (microsomes), lyophilized
Experimental: 3-1. Preparation of Gastric Vesicles
[…]. IX. Fraction and purification of K-ATPase-containing vesicles by zonal centrifugation and free-flow electrophoresis techinque. Biochem. Biophy. Acta. (BBA)-Biomembranes 465, 311-330, 1977). This matertal was lyophilized and stored at −70° C. The protein content of gastric vesicles was determined by the Bradford method using bovine serum albumin as a standard (Bradford M M, A rapid and sensitive method for the quantitation of microgram quantities of protein utilizing the principle of protein-dye binding. Anal Biochem. 72, 248-254, 1976).
3-2. Determination of Reversible Inhibition of Hog Gastric H^+/K^+-ATPase
Activity of H^+/K^+-ATPase in hog microsome (lyophilized vesicle) was measured by the inorganic phosphate released from ATP using an one-step calorimetric detection method at the concentration at which the test compounds have 50% inhibition of the proton pump (Chan K M, Delfert D, and Junger K D, A direct calorimetric assay for Ca^2+-stimulated ATPase activity. Anal Biochem, 157, 375-380, 1986). The mode of action of test compounds on H^+/K^+-ATPase was investigated according to the Washout method (Beil W, Staar U, and Sewing K F, Substituted thieno[3,4-d]imidazoles, a novel group of H^+/K+-ATPase inhibitors. Differentiation of their inhibition charactertstics from those of omeprazole. Eur. J. Pharmacol., 187, 455-67, 1990). […]

Proton Pump (H^+/K^+-ATPase), sequence (P19156 2-1034 limits assumed): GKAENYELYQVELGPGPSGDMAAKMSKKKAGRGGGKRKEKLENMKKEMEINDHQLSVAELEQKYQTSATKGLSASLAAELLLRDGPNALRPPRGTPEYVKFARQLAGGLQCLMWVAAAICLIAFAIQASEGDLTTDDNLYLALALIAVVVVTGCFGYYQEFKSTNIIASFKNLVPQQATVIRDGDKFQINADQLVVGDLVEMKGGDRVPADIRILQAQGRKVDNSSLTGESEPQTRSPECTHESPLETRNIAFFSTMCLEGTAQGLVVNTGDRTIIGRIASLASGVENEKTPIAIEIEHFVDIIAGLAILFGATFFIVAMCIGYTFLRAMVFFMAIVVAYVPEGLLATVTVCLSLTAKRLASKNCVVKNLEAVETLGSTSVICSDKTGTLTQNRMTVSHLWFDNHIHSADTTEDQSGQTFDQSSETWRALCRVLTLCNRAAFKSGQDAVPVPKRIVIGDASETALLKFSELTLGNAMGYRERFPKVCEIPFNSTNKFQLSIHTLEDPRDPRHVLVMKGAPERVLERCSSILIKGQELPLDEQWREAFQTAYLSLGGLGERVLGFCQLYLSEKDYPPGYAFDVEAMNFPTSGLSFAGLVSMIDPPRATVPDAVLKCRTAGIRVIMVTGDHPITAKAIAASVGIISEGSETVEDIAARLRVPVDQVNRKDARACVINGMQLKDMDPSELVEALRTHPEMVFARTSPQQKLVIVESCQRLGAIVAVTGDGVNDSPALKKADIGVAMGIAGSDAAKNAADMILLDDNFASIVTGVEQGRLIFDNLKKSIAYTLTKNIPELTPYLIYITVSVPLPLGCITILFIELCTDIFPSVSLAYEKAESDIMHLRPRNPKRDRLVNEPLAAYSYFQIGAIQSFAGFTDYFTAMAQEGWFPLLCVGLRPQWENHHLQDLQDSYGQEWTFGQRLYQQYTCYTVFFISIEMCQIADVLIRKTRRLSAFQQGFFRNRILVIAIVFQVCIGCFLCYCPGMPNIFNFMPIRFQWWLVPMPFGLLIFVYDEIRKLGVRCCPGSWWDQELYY
Proton Pump (H^+/K^+-ATPase), sequence (P18434 whole entry partner): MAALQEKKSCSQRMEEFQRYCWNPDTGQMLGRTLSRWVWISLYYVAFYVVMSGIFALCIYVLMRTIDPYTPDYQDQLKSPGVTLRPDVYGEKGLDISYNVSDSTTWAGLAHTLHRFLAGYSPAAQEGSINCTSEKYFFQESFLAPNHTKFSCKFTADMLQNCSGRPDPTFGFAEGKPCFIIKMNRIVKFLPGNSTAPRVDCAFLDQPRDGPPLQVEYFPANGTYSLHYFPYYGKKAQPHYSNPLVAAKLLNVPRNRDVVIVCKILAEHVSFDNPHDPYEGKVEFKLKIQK
T1 sequence (P19156 2-1034 limits assumed): as the sequence (P19156 2-1034 limits assumed) above
T1 sequence (P18434 whole entry partner): as the sequence (P18434 whole entry partner) above

SMILES	ED50 [1] [mg/kg]	IC50 [2] [nM]	inhibition of H^+/K^+-ATPase activity after washout ([3]; after washout, compared with non-treated group)	inhibition of H^+/K^+-ATPase activity before washout ([3]; before washout, test compound at the concentration of 50% inhibition of the proton pump) [%]
Cc1[nH]c2c(-c3ccc4ccccc4c3)nccc2c1C.Cl [Example 402, 2,3-dimethyl-7-(naphthalen-2-yl)-1H-pyrrolo[2,3-c]pyridine hydrochloride]	11.2	63	–	–
Cc1[nH]c2c(N3CCc4ccccc4C3)nccc2c1C.Cl [Example 468, 7-(1,2,3,4-tetrahydroisoquinolin-2-yl)-2,3-dimethyl-1H-pyrrolo[2,3-c]pyridine hydrochloride]	5.2	190	–	–
Cc1c(C)n(Cc2ccccc2)c2c(N3CCc4ccccc4C3)nccc12.Cl [Example 469, 1-benzyl-7-(1,2,3,4-tetrahydroisoquinolin-2-yl)-2,3-dimethyl-1H-pyrrolo[2,3-c]pyridine hydrochloride]	1.4	52	–	–
Cc1c(C)n(C)c2c(N3CCc4ccccc4C3)nccc12.Cl [Example 470, 7-(1,2,3,4-tetrahydroisoquinolin-2-yl)-1,2,3-trimethyl-1H-pyrrolo[2,3-c]pyridine hydrochloride]	4.4	320	–	–
CCCn1c(C)c(C)c2ccnc(N3CCc4ccccc4C3)c21.Cl [Example 473, 1-propyl-7-(1,2,3,4-tetrahydroisoquinolin-2-yl)-2,3-dimethyl-1H-pyrrolo[2,3-c]pyridine hydrochloride]	2.8	470	–	–
Cc1nc(Cn2c(C)c(C)c3ccnc(N4CCc5ccccc5C4)c32)cs1.Cl [Example 474, 1-(2-methylthiazol-4-ylmethyl)-7-(1,2,3,4-tetrahydroisoquinolin-2-yl)-2,3-dimethyl-1H-pyrrolo[2,3-c]pyridine hydrochloride]	11.9	110	–	–
Cc1ccc(Cn2c(C)c(C)c3ccnc(N4CCc5ccccc5C4)c32)cc1.Cl [Example 477, 1-(4-methylbenzyl)-7-(1,2,3,4-tetrahydroisoquinolin-2-yl)-2,3-dimethyl-1H-pyrrolo[2,3-c]pyridine hydrochloride]	2	300	–	–
Cc1c(C)n(Cc2cccc(F)c2)c2c(N3CCc4ccccc4C3)nccc12.Cl [Example 480, 1-(3-fluorobenzyl)-7-(1,2,3,4-tetrahydroisoquinolin-2-yl)-2,3-dimethyl-1H-pyrrolo[2,3-c]pyridine hydrochloride]	1.8	32	did not inhibit	50
COc1ccc(Cn2c(C)c(C)c3ccnc(N4CCc5ccccc5C4)c32)cc1.Cl [Example 482, 1-(4-methoxybenzyl)-7-(1,2,3,4-tetrahydroisoquinolin-2-yl)-2,3-dimethyl-1H-pyrrolo[2,3-c]pyridine hydrochloride]	2.4	360	–	–
C=CCn1c(C)c(C)c2ccnc(N3CCc4ccccc4C3)c21.Cl [Example 484, 1-allyl-7-(1,2,3,4-tetrahydroisoquinolin-2-yl)-2,3-dimethyl-1H-pyrrolo[2,3-c]pyridine hydrochloride]	1.4	3.7	–	–
C=COCCn1c(C)c(C)c2ccnc(N3CCc4ccccc4C3)c21.Cl [Example 511, 1-(2-vinyloxyethyl)-7-(1,2,3,4-tetrahydroisoquinolin-2-yl)-2,3-dimethyl-1H-pyrrolo[2,3-c]pyridine hydrochloride]	2.1	420	–	–
C=CCn1c(C)c(C)c2ccnc(N3CCc4ccccc4C3C)c21.Cl (stereo not drawn) [Example 553, 2-(1-allyl-2,3-dimethyl-1H-pyrrolo[2,3-c]pyridin-7-yl)-1-methyl-1,2,3,4-tetrahydroisoquinoline hydrochloride]	2.1	26	–	–
Cc1c(C)n(Cc2cccc(F)c2)c2c(N3CCc4ccccc4C3C)nccc12.Cl (stereo not drawn) [Example 557, 2-[1-(3-fluorobenzyl)-2,3-dimethyl-1H-pyrrolo[2,3-c]pyridin-7-yl]-1-methyl-1,2,3,4-tetrahydroisoquinoline hydrochloride]	4.1	146	–	–
C=CCn1c(C)c(C)c2ccnc(N3CCc4cc(F)ccc4C3C)c21.Cl (stereo not drawn) [Example 563, 2-(1-allyl-2,3-dimethyl-1H-pyrrolo[2,3-c]pyridin-7-yl)-6-fluoro-1-methyl-1,2,3,4-tetrahydroisoquinoline hydrochloride]	3.5	49	–	–
